# Data taken from ChEMBL document CHEMBL3638389, “Chemokine receptor antagonists” (2014).
# Target: C-C chemokine receptor type 2 (Homo sapiens, UniProt P41597)
# Assay: Radioligand Binding Assay: Radioligand binding assays were performed in CHO cells expressing human CCR2B and Galpha±16 coupling protein. All compounds were dissolved in DMSO and assays run at a final DMSO concentration of 0.5% (v/v). [125I]-labeled human MCP-1 was purchased from PerkinElmer. Unlabelled human MCP-1 was purchased from PeproTech.Compounds were serially diluted in DMSO before diluting into assay buffer (25 mM HEPES, pH 7.4, 5 mM MgCl2, 1 mM CaCl2, 0.5% BSA) with cryo preserved CHO cells expressing human CCR2B and the Galpha±16 coupling protein (30x10^3/well) and [125I]-MCP-1 (50 pM). The reaction was incubated at room temperature for 90 minutes before transferring to GF/C filter membrane (PerkinElmer) pre-treated with 0.3% polyethyleneimine for 2 hours at 4 C. The filter membrane was washed six times with ice cold wash buffer (25 mM HEPES, pH 7.4, 5 mM MgCl2, 1 mM CaCl2, 500 mM NaCl, 0.01% (m/v) azide), dried, and sealed in a RLB sample bag (Agilent Technologies).
# Assay type: cell-based
# C-C chemokine receptor type 2, sequence (P41597 whole entry): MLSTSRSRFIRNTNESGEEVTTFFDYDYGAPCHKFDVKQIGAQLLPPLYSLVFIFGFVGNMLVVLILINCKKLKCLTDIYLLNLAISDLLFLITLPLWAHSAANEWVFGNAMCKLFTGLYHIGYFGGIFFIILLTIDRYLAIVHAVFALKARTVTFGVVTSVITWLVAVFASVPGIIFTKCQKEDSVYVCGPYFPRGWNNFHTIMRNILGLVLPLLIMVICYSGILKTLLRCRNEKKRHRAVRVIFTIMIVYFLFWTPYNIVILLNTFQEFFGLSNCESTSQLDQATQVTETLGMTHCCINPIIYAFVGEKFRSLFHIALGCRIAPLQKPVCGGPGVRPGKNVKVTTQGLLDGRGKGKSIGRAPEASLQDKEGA
Ki,Compound,IC50
,CO[C@@H]1COCC[C@@H]1N[C@@H]1C[C@H]2CCC[C@@]2(C(=O)N2C[C@@H]3C[C@H]2CN3c2cc(C(F)(F)F)cc(C(F)(F)F)c2)C1,1520 nM
17 nM,CO[C@@H]1COCC[C@@H]1N[C@@H]1C[C@H]2CCC[C@@]2(C(=O)N2C[C@@H]3C[C@H]2CN3c2ccc(Cl)c(C(F)(F)F)c2)C1,17.6 nM
